Consider 9 compounds from patent publication US5204352A, “Compounds exhibiting anti-parasitic activity and a method for their use” (The United States of America as represented by the …, priority 1987, dated 1993).

In this test the test system is Trypanosoma rhodesiense. The test can be described thus: In vivo trypanocidal activity in infected mice (protocol based on Rane et al.). Also noted: Activity at dosage, value in parentheses (increase in survival): unit not given here. The procedure:
The compounds of the present invention were evaluated biologically in vivo with groups of 5 mice at various dose levels. Unless otherwise indicated, the data are for subcutaneous administration. Dose levels marked with an asterisk are for peritoneal administration in a HEC+T medium. In addition, Table 2 present results of peritoneal administration with substituted quanylhydrazones. The biological evaluation was done according to a standard protocol based on the method described by Rane et al., Amer. J. Trop. Med Hyg. 25:395 (1976). […]

Where [1] appears, read: 13.3* mg/kg, peritoneal in HEC+T medium (Table I).
The mark [2] stands for this setting: 26* mg/kg, peritoneal in HEC+T medium (Table I).
[3] abbreviates: 106* mg/kg, peritoneal in HEC+T medium (Table I).
[4] abbreviates: 212* mg/kg, peritoneal in HEC+T medium (Table I).
Where [5] appears, read: 424* mg/kg, peritoneal in HEC+T medium (Table I).

As for `C[n+]1c(COc2ccc(C=NNC(=N)NO)cc2)cn2ccccc21` [BK75087], the Increase in survival was 5.9 days (0.2 mg/kg, subcutaneous) and 10 days (0.4 mg/kg, subcutaneous). Further, the “Trypanocidal activity, cures” value (0.2 mg/kg, subcutaneous) was 2/5; the “Trypanocidal activity, cures” value (0.4 mg/kg, subcutaneous) is on record as 3/5; the “Trypanocidal activity, cures” value (0.8 mg/kg, subcutaneous) is recorded as 10/10; the “Trypanocidal activity, cures” value (6.6 mg/kg, subcutaneous) is listed as 5/5.
Take `CN=C(N)NN=Cc1ccc(-c2cn3ccsc3[n+]2C)cc1` [BK47967]: the “Trypanocidal activity, cures” value (6.66 mg/kg, subcutaneous) is 5/5.
Take `C[n+]1c(-c2ccc(C=NNC3=NCCN3)cc2)cn2ccccc21` [BK50311]: the Increase in survival by setting is: (0.42 mg/kg, subcutaneous) 6.6 days; (0.83 mg/kg, subcutaneous) 1.5 days; (1.66 mg/kg, subcutaneous) 22.0 days; (6.6 mg/kg, subcutaneous) 10.0 days; under setting [1], 9.0 days; under setting [2], 13.5 days. Besides, the “Trypanocidal activity, cures” value (0.42 mg/kg, subcutaneous) is 2/5; the “Trypanocidal activity, cures” value (0.83 mg/kg, subcutaneous) is 8/10; the “Trypanocidal activity, cures” value (1.66 mg/kg, subcutaneous) was 9/10; the “Trypanocidal activity, cures” value (3.3 mg/kg, subcutaneous) is given as 5/5; the “Trypanocidal activity, cures” value (6.6 mg/kg, subcutaneous) was 3/5; the “Trypanocidal activity, cures” value (13.3 mg/kg, subcutaneous) was 10/10. Also, the “Trypanocidal activity, cures” value is, setting by setting: under setting [1], 9/10; under setting [2], 13/15; (53* mg/kg, peritoneal in HEC+T medium (Table I)) 5/5; under setting [3], 10/10; under setting [4], 5/5; under setting [5], 0/10. Also, the “Activity at dosage (C = Cures)” value (0.8 mg/kg, peritoneal (Table 2)) is “INAC”. In addition, the “Activity at dosage, value in parentheses (increase in survival)” value (from here on “Activity at dosage … (increase in survival)”) (1.7 mg/kg, peritoneal (Table 2)) was 1.0; the “Activity at dosage … (increase in survival)” value (3.3 mg/kg, peritoneal (Table 2)) came out at 1.6; the “Activity at dosage … (increase in survival)” value (6.7 mg/kg, peritoneal (Table 2)) was 7.7; the “Activity at dosage … (increase in survival)” value (13 mg/kg, peritoneal (Table 2)) is 9.0; the “Activity at dosage … (increase in survival)” value (26 mg/kg, peritoneal (Table 2)) was determined as 13.5.
Take `C[n+]1c(-c2ccc(C=NO)cc2)cn2ccccc21` [BJ90712]: for the setting “106 mg/kg, subcutaneous”, the Increase in survival worked out at 4.2 days and the “Trypanocidal activity, cures” value is given as 2/5.
As for `CN(C)C(=N)NN=Cc1ccc(-c2cn3ccccc3[n+]2C)cc1` [BK47976], the “Trypanocidal activity, cures” value (6.66 mg/kg, subcutaneous) was 5/5.
For the compound `C=CC[n+]1c(-c2ccc(N(CC)C(C)=O)cc2)cn2ccccc21` [BK02566], the Increase in survival runs as follows: under setting [3], 2.8 days; under setting [4], 4.7 days; under setting [5], 9.9 days. Moreover, the “Trypanocidal activity, cures” value is, setting by setting: under setting [3], 1/10; under setting [4], 1/5; under setting [5], 5/10.
For `C[n+]1c(-c2ccc(C(N)=S)cc2)cn2ccccc21` [BK11743], the Increase in survival runs as follows: (6.65 mg/kg, subcutaneous) 2.7 days; (13.3 mg/kg, subcutaneous) 3.3 days; (26 mg/kg, subcutaneous) 4.0 days; (106 mg/kg, subcutaneous) 3.2 days; (212 mg/kg, subcutaneous) 17.0 days. Further, the “Trypanocidal activity, cures” value by setting is: (6.65 mg/kg, subcutaneous) 2/10; (13.3 mg/kg, subcutaneous) 1/10; (26 mg/kg, subcutaneous) 3/15; (53 mg/kg, subcutaneous) 5/5; (106 mg/kg, subcutaneous) 5/10; (212 mg/kg, subcutaneous) 4/5.
For `C[n+]1c(-c2ccc(C(=N)N)cc2)cn2ccsc21` [BK21874], the Increase in survival runs as follows: (26.5 mg/kg, subcutaneous) 3.6 days; (53 mg/kg, subcutaneous) 2.5 days; (106 mg/kg, subcutaneous) 12.9 days. Also, the “Trypanocidal activity, cures” value reads like this: (26.5 mg/kg, subcutaneous) 1/10; (53 mg/kg, subcutaneous) 2/5; (106 mg/kg, subcutaneous) 9/10; (212 mg/kg, subcutaneous) 5/5.
As for `C[n+]1c(C=Cc2ccc(C=NNC(=N)N)cc2)cn2ccccc21` [BL09462], the Increase in survival (0.1 mg/kg, subcutaneous) was 5.2 days. Besides, the “Trypanocidal activity, cures” value is 6/10 (0.1 mg/kg, subcutaneous); 5/5 (0.2 mg/kg, subcutaneous); 10/10 (0.8 mg/kg, subcutaneous).
